Laboratory results taken from US9708590B2, “Crystal structure of human α-N-acetylglucosaminidase” (Shire Human Genetic Therapies, Inc., priority 2010, dated 2017).

Tests used:
[1] = Solubility of the activity-assay substrate in water; assay type: physicochemical; settings: required DMSO to be dissolved
Method: A 10 mM stock of substrate was prepared by dissolving 5 mg of 4-methylumbelliferyl-N-acetyl-α-D-glucosaminide in 250 μL of 100% DMSO first. Naglu activity assay reaction buffer was then added to bring the volume up to […]. This 10 mM Substrate stock was further diluted 10-fold with reaction buffer to make the 1 mM substrate solution. Un-used 10 mM substrate stock was stored in −80° C. for up to one month. Samples and controls were pre-diluted in reaction buffer. 10 μL of each pre-diluted sample/control was applied in duplicate wells on a black clear bottom 96 well plate. 10 μL of reaction buffer was added to two wells of the plate and served as reaction buffer control. 75 μL of 1 mM substrate was added to each well that contained 10 μL of sample/control. The plate was sealed with plate sealer and wrapped with aluminum foil. The plate was placed in 37° C. Jitterbug and incubated with shaking setting at #1 for 1 hour. Prior to the completion of incubation, standards were prepared by diluting the stock (1000 μM) of 4-methlyumbelliferyl sodium salt down to 25 μM, 12.5 μM, 6.25 μM, 3.12 μM, 1.56 μM, 0.78 μM, 0 μM with water. At the completion of incubation, 85 μL of each of the seven standards was loaded on the plate in duplicate. […] The plate was measured for fluorescence at 360/460 (Excitation/Emission) using a Molecular Devices SpectraMax Plus M2 plate reader.

[2] = system: MSP III-B derived fibroblasts; settings: in vitro, Malinowska et al. (2009); cited from earlier work

solubility in water [1]	Compound	effect on GAG synthesis [2]
very low solubility in water	CC(=O)N[C@H]1[C@@H](Oc2ccc3c(C)cc(=O)oc3c2)O[C@H](CO)[C@@H](O)[C@@H]1O [4-methylumbelliferyl-N-acetyl-α-D-glucosaminide]	
	O=c1c(-c2ccc(O)cc2)coc2cc(O)cc(O)c12 [gensteine]	inhibit GAG synthesis
